Assay results taken from US6878742B2, “Heterocyclic sulfonamide inhibitors of beta amyloid production” (Wyeth, priority 2000, dated 2005).
“And” between values parts separate entries of the source, which are not always exact repeats. Equal entries are not always repeated.

System: amyloid precursor protein (APP) proteolysis
Experiment: Repressor Release Assay (RRA)
Format: cell-based
Conditions: Conc 1 μg/mL; luciferase activity over diluent control
Summary of the method: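 This repressor release assay monitors APP proteolysis in mammalian cells. Transfected CHO-K1 cells (pRSVO-luc plus APP-lacI) were seeded at […], treated with compound diluted in 25 mM Hepes, then incubated 36-48 hours. After replacing media with PBS and adding LucLite lysis/substrate buffer, luminescence was measured, and fold increase over diluent control was calculated.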

How did the “APPI Fold Increase” value turn out when `O=S(=O)(NC(CO)C1CCCCC1)c1ccc(Br)s1` (stereo not shown) [Example 13] was run?
Its value is 2.17 fold.

With `C=CCC(O)C(NS(=O)(=O)c1ccc(Cl)s1)C(C)CC` (mixture of isomers) [Example 128] as the compound, how does the “APPI Fold Increase” value read?
Its value is 1.52 fold.

Same assay, conditions: Conc 3 μg/mL; luciferase activity over diluent control

Which “APPI Fold Increase” value does the source give for `O=S(=O)(NC(CO)C1CCCCC1)c1ccc(Br)s1` (stereo not shown) [Example 13] here?
Its value is 4.02 fold.

How did the “APPI Fold Increase” value turn out when `C=CCC(O)C(NS(=O)(=O)c1ccc(Cl)s1)C(C)CC` (mixture of isomers) [Example 128] was run?
The value was 2.48 fold.

Same assay, conditions: Conc 10 μg/mL; luciferase activity over diluent control

With `O=S(=O)(NC(CO)C1CCCCC1)c1ccc(Br)s1` (stereo not shown) [Example 13] as the compound, how does the “APPI Fold Increase” value read?
Its value is 3.94 fold.

For `CC[C@H](C)[C@@H](CO)NS(=O)(=O)c1cc(Br)c(Cl)s1` [Example 3], which “APPI Fold Increase” value is on record?
Its value is 1 fold.

`CC(C)(C)[C@@H](CO)NS(=O)(=O)c1ccc(Cl)s1` [Example 98] was tested. Which “APPI Fold Increase” value did it give?
The value was 2.43 fold.

Which “APPI Fold Increase” value does the source give for `CCCCC(O)C(NS(=O)(=O)c1ccc(Cl)s1)C(C)CC` (mixture of isomers) [Example 123] here?
Its value is 2.14 fold and 1.76 fold.

With `C=CCC(O)C(NS(=O)(=O)c1ccc(Cl)s1)C(C)CC` (mixture of isomers) [Example 128] as the compound, how does the “APPI Fold Increase” value read?
Its value is 5.62 fold and 3.86 fold.

Same assay, conditions: Conc 10 μg/mL; luciferase activity over diluent control; read-out: APPI Fold Increase

With `CC[C@H](C)[C@H](NS(=O)(=O)c1ccc(Cl)s1)C(O)(c1ccc(OC)cc1)c1ccc(OC)cc1` [Example 169, 5-chloro-N-((S,S)-1-{hydroxy[bis(4-methoxyphenyl)]methyl}-2-methylbutyl)thiophene-2-sulfonamide] as the compound, how does the fold induction at 10 µg/mL read?
The fold induction at 10 µg/mL was 1.51.

Which fold induction at 10 µg/mL does the source give for `C=CCC(O)(CC=C)[C@@H](NS(=O)(=O)c1ccc(Cl)s1)[C@@H](C)CC` [Example 165, N-{(S)-2-allyl-2-hydroxy-1-[(S)-1-methylpropyl]pent-4-enyl}-5-chlorothiophene-2-sulfonamide] here?
The fold induction at 10 µg/mL was 1.73.

How did the fold induction at 10 µg/mL turn out when `CC[C@H](C)[C@H](NS(=O)(=O)c1ccc(Cl)s1)C(O)c1ccc(OC)cc1` (stereo partly drawn) [Example 134, 5-chloro-N-{(S,S)-1-[hydroxy(4-methoxyphenyl)methyl]-2-methylbutyl}thiophene-2-sulfonamide] was run?
Its fold induction at 10 µg/mL is 2.42.

`CC[C@H](C)[C@H](NS(=O)(=O)c1ccc(Cl)s1)C(O)CCC1OCCCO1` (stereo partly drawn) [Example 136, 5-chloro-N-{(S)-4-(1,3-dioxan-2-yl)-2-hydroxy-1-[(S)-1-methylpropyl]butyl}thiophene-2-sulfonamide] was tested. Which fold induction at 10 µg/mL did it give?
The fold induction at 10 µg/mL was 2.13.

Which fold induction at 10 µg/mL does the source give for `CCCCCCC(O)[C@@H](NS(=O)(=O)c1cccs1)[C@@H](C)CC` (stereo partly drawn) [Example 141, N-{(S)-2-hydroxy-1-[(S)-1-methylpropyl]octyl}thiophene-2-sulfonamide] here?
Its fold induction at 10 µg/mL is 4.2.

For `CCCCC(O)[C@@H](NS(=O)(=O)c1cccs1)[C@@H](C)CC` (stereo partly drawn) [Example 143, N-{(S)-2-hydroxy-1-[(S)-1-methylpropyl]hexyl}thiophene-2-sulfonamide], which fold induction at 10 µg/mL is on record?
Its fold induction at 10 µg/mL is 1.64.

Same assay, conditions: Conc 20 μg/mL; luciferase activity over diluent control

Which “APPI Fold Increase” value does the source give for “5-chloro-N-{(S,R)-2-hydroxy-1-[(S)-1-methylpropyl]pent-4-enyl}thiophene-2-sulfonamide [Example 189]” here?
The value was 8.1 fold and 7.9 fold and 7.2 fold and 4.4 fold.

For `C=CCC(O)C(NS(=O)(=O)c1ccc(Cl)s1)C(C)CC` (mixture of isomers) [Example 128], which “APPI Fold Increase” value is on record?
The value was 5.9 fold.

Same assay, conditions: Conc 20 μg/mL; luciferase activity over diluent control; read-out: APPI Fold Increase

How did the fold induction at 20 µg/mL turn out when `CCC[C@H](CC)[C@@H](CO)NS(=O)(=O)c1ccc(Cl)s1` [Example 34, 5-chloro-N-[(1S,2S)-2-ethyl-1-(hydroxymethyl)pentyl]thiophene-2-sulfonamide] was run?
The fold induction at 20 µg/mL was 5.9.

For `O=S(=O)(N[C@H](CO)c1ccccc1)c1ccc(Cl)s1` [Example 89, 5-Chloro-N-[(S)-2-hydroxy-1-phenylethyl]thiophene-2-sulfonamide], which fold induction at 20 µg/mL is on record?
The fold induction at 20 µg/mL was 2.3.

Which fold induction at 20 µg/mL does the source give for `CC[C@H](CC(C)C)[C@@H](CO)NS(=O)(=O)c1ccc(Br)s1` [Example 59, 5-bromo-N-[(1S,2R)-2-ethyl-1-(hydroxymethyl)-4-methylpentyl]thiophene-2-sulfonamide] here?
The fold induction at 20 µg/mL was 4.5.

Which fold induction at 20 µg/mL does the source give for `CCCCC(CO)NS(=O)(=O)c1ccc(Cl)s1` (racemic) [Example 91, 5-chloro-N-[1-(hydroxymethyl)pentyl]thiophene-2-sulfonamide] here?
Its fold induction at 20 µg/mL is 2.

With `CCC(CC)[C@@H](CO)NS(=O)(=O)c1ccc(Br)s1` [Example 58, 5-bromo-N-[(1S)-2-ethyl-1-(hydroxymethyl)butyl]thiophene-2-sulfonamide] as the compound, how does the fold induction at 20 µg/mL read?
Its fold induction at 20 µg/mL is 10.

With `CC[C@H](C)[C@@H](CO)NS(=O)(=O)c1ccc(F)s1` [Example 208, 5-Fluoro-N-[(1S,2S)-1-(hydroxymethyl)-2-methylbutyl]-2-thiophenesulfonamide] as the compound, how does the fold induction at 20 µg/mL read?
Its fold induction at 20 µg/mL is 16.5.

For `CCNC1CCC([C@@H](CO)NS(=O)(=O)c2ccc(Cl)s2)CC1` (stereo partly drawn) [Example 213, 5-chloro-N-[(S)-2-hydroxy-1-(4-ethylaminocyclohexyl)ethyl]thiophene-2-sulfonamide], which fold induction at 20 µg/mL is on record?
The fold induction at 20 µg/mL was 1.6.

With `O=S(=O)(N[C@H](CO)C1CCC(NCc2cccnc2)CC1)c1ccc(Cl)s1` (stereo partly drawn) [Example 216, 5-chloro-N-[(S)-2-hydroxy-1-(4-(3-pyridyl)methylaminocyclohexyl)ethyl]thiophene-2-sulfonamide] as the compound, how does the fold induction at 20 µg/mL read?
The fold induction at 20 µg/mL was 1.5.

How did the fold induction at 20 µg/mL turn out when `O=S(=O)(N[C@H](CO)CSCc1ccccc1)c1ccc(Br)s1` [Example 114, N-[R-2-(benzylthio)-1-(hydroxymethyl)ethyl]-5-bromothiophene-2-sulfonamide] was run?
The fold induction at 20 µg/mL was 1.8.

For `CCCCCC(NCCO)[C@@H](CO)NS(=O)(=O)c1ccc(Cl)s1` (stereo partly drawn) [Example 83, 5-chloro-N-[(1S)-2-[(2-hydroxyethyl)amino]-1-(hydroxymethyl)heptyl]-2-thiophenesulfonamide], which fold induction at 20 µg/mL is on record?
Its fold induction at 20 µg/mL is 1.7.

Which fold induction at 20 µg/mL does the source give for `CCCC(CCC)[C@@H](CO)NS(=O)(=O)c1ccc(Cl)s1` [Example 40, 5-chloro-N-[(1S)-2-propyl-1-(hydroxymethyl)pentyl]thiophene-2-sulfonamide] here?
Its fold induction at 20 µg/mL is 3.9.

How did the fold induction at 20 µg/mL turn out when `CC[C@H](C)[C@@H](/C=N/O)NS(=O)(=O)c1ccc(Cl)s1` [Example 230] was run?
Its fold induction at 20 µg/mL is 4.8.

With `CC[C@H](C)[C@@H](CO)NS(=O)(=O)c1ccc(I)s1` [Example 207, N-[(1S,2S)-1-(Hydroxymethyl)-2-methylbutyl]-5-iodo-2-thiophenesulfonamide] as the compound, how does the fold induction at 20 µg/mL read?
Its fold induction at 20 µg/mL is 5.6.

Which fold induction at 20 µg/mL does the source give for `CCC[C@H](CC(C)C)[C@@H](CO)NS(=O)(=O)c1ccc(Cl)s1` [Example 35, 5-chloro-N-[(1S,2R)-1-(hydroxymethyl)-4-methyl-2-propylpentyl]thiophene-2-sulfonamide] here?
Its fold induction at 20 µg/mL is 3.7.

How did the fold induction at 20 µg/mL turn out when `CCC(CC)[C@@H](CO)NS(=O)(=O)c1cccs1` [Example 226, N-[(S)-2-Ethyl-1-(hydroxymethyl)butyl]thiophene-2-sulfonamide] was run?
Its fold induction at 20 µg/mL is 7.6.

Which fold induction at 20 µg/mL does the source give for `O=S(=O)(N[C@H](CO)C1CCC(NCc2ccccn2)CC1)c1ccc(Cl)s1` (stereo partly drawn) [Example 219, 5-chloro-N-[(S)-2-hydroxy-1-(4-(2-pyridyl)methylaminocyclohexyl)ethyl]thiophene-2-sulfonamide] here?
Its fold induction at 20 µg/mL is 2.3.

How did the fold induction at 20 µg/mL turn out when `CCCCC[C@H](c1ccc(OC)cc1)[C@@H](CO)NS(=O)(=O)c1ccc(Cl)s1` [Example 43, 5-chloro-N-[(1S,2R)-1-(hydroxymethyl)-2-(4-methoxyphenyl)heptyl]thiophene-2-sulfonamide] was run?
The fold induction at 20 µg/mL was 1.7.

For `CC[C@H](C)[C@H](NS(=O)(=O)c1ccc(Cl)s1)C(O)C/C=C/c1ccccc1` (stereo partly drawn) [Example 161, 5-chloro-N-{(S,E)-2-hydroxy-1-[(S)-1-methylpropyl]-5-phenylpent-4-enyl}thiophene-2-sulfonamide], which fold induction at 20 µg/mL is on record?
The fold induction at 20 µg/mL was 2.6.

`O=S(=O)(N[C@H](CO)C1Cc2ccccc2C1)c1ccc(Cl)s1` [Example 228, 5-Chloro-N-[(1S)-1-(2,3-dihydro-1H-inden-2-yl)-2-hydroxyethyl]thiophene-2-sulfonamide] was tested. Which fold induction at 20 µg/mL did it give?
Its fold induction at 20 µg/mL is 9.9.

How did the fold induction at 20 µg/mL turn out when `CC[C@H](C)[C@@H](CO)N(Cc1cccc(Cl)c1)S(=O)(=O)c1ccc(Cl)s1` [Example 88, 5-chloro-N-(3-chlorobenzyl)-N-[(1S,2S)-1-(hydroxymethyl)-2-methylbutyl]thiophene-2-sulfonamide] was run?
The fold induction at 20 µg/mL was 4.9.
